We go through one compound from paper PMC3382171 (PLoS ONE, 2012).

What all share (experiment): biochemical
One assay has as its target ZAP70 (Homo sapiens, UniProt P43403). Further details: gene ZAP70. As to conditions: read-out: Upstate KSS % inhibition at 1uM. As for the experimental part: (§1) In these selectivity assays the concentration of ATP was set to the Km value of ATP for each kinase tested to allow for a relative potency comparison between the various kinases. The compounds were tested at 1 µM final concentration. […] (A) Kinase selectivity screen (KSS) performed at Upstate Biotechnology. […] (B) KSS performed at University of Dundee (Division of Signal Transduction Therapy). […] (PDF) Click here for additional data file.

The target of the next assay is CSK (Homo sapiens, UniProt P41240). The conditions noted are these: read-out: Dundee KSS % inhibition at 1uM. As for the experimental part: as §1, with “The METi and RAFi were screened against kinase panels (SelectScreen, Invitrogen; University of Dundee, Division of Signal Transduction Therapy, UK; Upstate Biotechnology/Millipore, Billerica, MA). In” for “In”
Sequence of CSK (P41240 whole entry): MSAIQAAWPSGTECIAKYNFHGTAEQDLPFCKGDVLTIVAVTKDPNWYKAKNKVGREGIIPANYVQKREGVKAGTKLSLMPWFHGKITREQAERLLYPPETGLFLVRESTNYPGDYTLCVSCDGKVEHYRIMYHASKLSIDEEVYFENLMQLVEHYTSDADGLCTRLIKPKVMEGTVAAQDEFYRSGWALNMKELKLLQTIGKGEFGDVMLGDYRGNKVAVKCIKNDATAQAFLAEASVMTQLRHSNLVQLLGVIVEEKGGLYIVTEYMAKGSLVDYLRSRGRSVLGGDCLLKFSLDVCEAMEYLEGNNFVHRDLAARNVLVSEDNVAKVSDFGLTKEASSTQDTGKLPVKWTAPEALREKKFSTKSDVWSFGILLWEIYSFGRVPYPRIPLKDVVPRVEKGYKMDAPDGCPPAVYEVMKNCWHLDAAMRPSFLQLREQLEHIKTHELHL
A further assay has as its target T1, PRK2 (Homo sapiens, UniProt Q16513).
T1 construct: gene PKN2
As to conditions: read-out: Dundee KSS % inhibition at 1uM. As to the method:
as §1, with “The METi and RAFi were screened against kinase panels (SelectScreen, Invitrogen; University of Dundee, Division of Signal Transduction Therapy, UK; Upstate Biotechnology/Millipore, Billerica, MA). In” for “In”

The target of another assay is MAPK1/ERK2 (Homo sapiens, UniProt P28482). The conditions noted are these: read-out: Dundee KSS % inhibition at 1uM. As for the experimental part: as §1, with “The METi and RAFi were screened against kinase panels (SelectScreen, Invitrogen; University of Dundee, Division of Signal Transduction Therapy, UK; Upstate Biotechnology/Millipore, Billerica, MA). In” for “In”
Sequence of MAPK1/ERK2 (P28482 whole entry): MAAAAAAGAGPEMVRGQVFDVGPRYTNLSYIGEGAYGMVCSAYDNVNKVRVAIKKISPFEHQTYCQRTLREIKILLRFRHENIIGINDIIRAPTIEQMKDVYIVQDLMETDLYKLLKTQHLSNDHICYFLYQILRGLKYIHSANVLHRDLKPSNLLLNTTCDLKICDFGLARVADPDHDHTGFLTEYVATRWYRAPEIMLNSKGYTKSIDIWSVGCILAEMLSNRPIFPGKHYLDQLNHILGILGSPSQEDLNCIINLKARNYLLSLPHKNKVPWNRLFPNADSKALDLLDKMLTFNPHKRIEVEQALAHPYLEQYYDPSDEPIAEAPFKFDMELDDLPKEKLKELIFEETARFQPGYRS

The target of a further assay is T2, CAMKKa (Homo sapiens, UniProt Q8N5S9).
T2 construct: gene CAMKK1
T2 sequence (Q8N5S9 whole entry): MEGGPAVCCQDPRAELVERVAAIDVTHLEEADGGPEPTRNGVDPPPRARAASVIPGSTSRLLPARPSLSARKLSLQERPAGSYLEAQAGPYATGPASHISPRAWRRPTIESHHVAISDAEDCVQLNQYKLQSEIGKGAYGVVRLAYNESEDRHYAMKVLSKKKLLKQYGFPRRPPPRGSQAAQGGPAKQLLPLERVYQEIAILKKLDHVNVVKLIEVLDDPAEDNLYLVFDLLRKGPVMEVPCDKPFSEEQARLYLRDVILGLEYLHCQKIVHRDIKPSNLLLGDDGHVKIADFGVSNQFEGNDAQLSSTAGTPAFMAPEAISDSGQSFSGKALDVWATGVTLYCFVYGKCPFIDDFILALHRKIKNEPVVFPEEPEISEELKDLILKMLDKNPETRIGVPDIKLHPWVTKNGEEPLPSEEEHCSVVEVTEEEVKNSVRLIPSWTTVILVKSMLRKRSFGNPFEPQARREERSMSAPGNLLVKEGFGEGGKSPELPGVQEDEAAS
As to conditions: read-out: Dundee KSS % inhibition at 1uM. As for the experimental part:
as §1, with “The METi and RAFi were screened against kinase panels (SelectScreen, Invitrogen; University of Dundee, Division of Signal Transduction Therapy, UK; Upstate Biotechnology/Millipore, Billerica, MA). In” for “In”

Sequence of ZAP70 (P43403 whole entry): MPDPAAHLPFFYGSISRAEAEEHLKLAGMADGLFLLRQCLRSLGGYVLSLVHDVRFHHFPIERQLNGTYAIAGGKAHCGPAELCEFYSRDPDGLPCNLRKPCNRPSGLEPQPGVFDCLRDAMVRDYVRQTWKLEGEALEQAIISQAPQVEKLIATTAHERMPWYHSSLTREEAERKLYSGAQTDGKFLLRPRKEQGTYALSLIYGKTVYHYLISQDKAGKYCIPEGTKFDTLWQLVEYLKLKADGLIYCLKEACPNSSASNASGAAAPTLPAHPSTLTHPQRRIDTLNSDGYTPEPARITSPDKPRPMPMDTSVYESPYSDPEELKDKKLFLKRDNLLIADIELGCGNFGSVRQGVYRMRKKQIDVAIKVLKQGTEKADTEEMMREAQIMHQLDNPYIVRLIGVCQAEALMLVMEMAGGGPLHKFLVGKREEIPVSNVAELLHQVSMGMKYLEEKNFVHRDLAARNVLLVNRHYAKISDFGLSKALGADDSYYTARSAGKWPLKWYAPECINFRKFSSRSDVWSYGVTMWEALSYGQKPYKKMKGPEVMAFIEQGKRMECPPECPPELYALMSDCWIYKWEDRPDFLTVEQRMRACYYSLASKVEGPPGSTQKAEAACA
T1 sequence (Q16513 whole entry): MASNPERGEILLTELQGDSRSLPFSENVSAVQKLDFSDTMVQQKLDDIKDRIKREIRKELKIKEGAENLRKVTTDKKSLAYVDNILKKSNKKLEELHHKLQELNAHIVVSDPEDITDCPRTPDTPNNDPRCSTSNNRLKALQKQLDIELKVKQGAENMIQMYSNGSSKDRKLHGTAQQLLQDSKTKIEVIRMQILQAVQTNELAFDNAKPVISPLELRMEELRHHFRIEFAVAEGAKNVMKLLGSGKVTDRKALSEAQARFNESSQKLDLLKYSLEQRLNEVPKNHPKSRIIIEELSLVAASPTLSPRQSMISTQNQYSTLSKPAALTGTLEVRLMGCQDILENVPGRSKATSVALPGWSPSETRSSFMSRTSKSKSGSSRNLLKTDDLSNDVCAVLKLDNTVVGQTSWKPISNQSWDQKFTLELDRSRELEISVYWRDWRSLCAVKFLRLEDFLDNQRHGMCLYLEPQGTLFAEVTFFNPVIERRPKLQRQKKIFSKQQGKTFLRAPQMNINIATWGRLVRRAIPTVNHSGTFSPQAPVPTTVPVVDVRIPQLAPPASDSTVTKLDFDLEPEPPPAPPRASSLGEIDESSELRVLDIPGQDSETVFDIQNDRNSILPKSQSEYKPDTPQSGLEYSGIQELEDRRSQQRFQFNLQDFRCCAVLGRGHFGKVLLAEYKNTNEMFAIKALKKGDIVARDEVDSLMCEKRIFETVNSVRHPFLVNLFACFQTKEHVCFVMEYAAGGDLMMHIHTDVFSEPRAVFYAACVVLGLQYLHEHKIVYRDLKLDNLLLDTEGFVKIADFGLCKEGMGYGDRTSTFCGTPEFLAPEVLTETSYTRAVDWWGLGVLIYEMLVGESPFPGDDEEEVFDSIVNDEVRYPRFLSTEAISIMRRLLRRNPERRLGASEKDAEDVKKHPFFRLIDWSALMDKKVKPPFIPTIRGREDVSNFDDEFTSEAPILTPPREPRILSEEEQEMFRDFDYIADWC

One may read the inhibition as the relative decrease from the control value, in per cent. For the compound `OCCn1cc(-c2cnc3nnn(Cc4ccc5ncccc5c4)c3n2)cn1` [METi, PF-04217903], the inhibition at 1 µM was 3% on ZAP70; 5.77% at CSK; 11.7% on PRK2; -13% at MAPK1/ERK2; 8.9% on CAMKKa.
